Measurements from paper PMC6355697, “Binding Specificity of Native Odorant-Binding Protein Isoforms Is Driven by Phosphorylation and O-N-Acetylglucosaminylation in the Pig Sus scrofa” (Frontiers in Endocrinology, 2019).
Read-outs that look alike come from different tables or passages of the source.

Key:
OBP-native-iso1 [1] = biological target: T1, OBP-native-iso1 (Sus scrofa, UniProt P81245); assay: Fluorescence titration with the probe AMA; format: binding; details: OBP-native-iso1 at 2.5 μM, 50 mM Tris buffer pH 7.8, estimated
T1 construct: Proteins were gently extracted from RM of pre-pubertal males of S. scrofa; from tissue; host or cells: RM (respiratory mucosa) extract of pre-pubertal male pigs, purified by two rounds of anion-exchange HPLC
T1 sequence (P81245 1-157): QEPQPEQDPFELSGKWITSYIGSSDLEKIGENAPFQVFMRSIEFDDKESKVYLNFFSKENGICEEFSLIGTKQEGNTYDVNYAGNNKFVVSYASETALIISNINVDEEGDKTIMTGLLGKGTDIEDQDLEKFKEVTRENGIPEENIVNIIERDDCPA
Experimental: (§1) Androstenone (3-keto-5α, 16-androstene), androstenol (3α-hydroxy-5α-androst-16-ene), testosterone (17β-hydroxy-3-oxo-4-androstene), palmitic acid (hexadecanoic acid), myristic acid (tetradecanoic acid), and AMA (1-aminoanthracene) were purchased from Sigma-Aldrich. UV-visible spectra were recorded on a Cary-100 double beam spectrometer (Varian) with a cell of 0.5 cm path length. The protein concentration was calculated by UV-visible spectroscopy, by using the molar extinction coefficient of 11,740 M^−1cm^−1 for OBP (calculated by the software “ProtParam tool” at www.expasy.org) at the maximum wavelength of absorption (280 nm). Steady state fluorescence measurements were performed on a Fluoromax-3 (Jobin-Yvon) spectrofluorimeter using a micro quartz cell (0.5 cm light-path) with a reflecting window. 1-Aminoantracene (AMA) was used as a fluorescent probe. The experimental conditions and data treatment have been described previously ([17]). The dissociation constant (Kd-AMA) of the OBP-AMA complex was calculated from the binding curve by fitting the experimental data with the use of the computer program Origin 7.5 (OriginLab Corporation). The affinities of the five ligands were measured in a competitive binding assay with AMA as the fluorescent probe. AMA was dissolved in 100% ethanol to yield a 1 mM stock solution. For protein titration, aliquots of AMA were successively added to the protein at 1 or 2.5 μM in 50 mM Tris buffer (pH 7.8) and emission spectra were acquired after a 15 min equilibration period. Competitive binding experiments were then carried out with different protein and ligand concentrations. The spectra were recorded 15 min after the ligand addition, and competition was monitored by following the decrease in intensity of fluorescence associated with the band of AMA bound to the protein. The apparent Kd values of the ligand-protein complexes were calculated as described in Brimau et al. ([17]).
(§2) We measured the affinity of the four native OBP isoforms for the five selected ligands under the same experimental conditions that were used previously for recombinant OBP isoforms ([17]). The four isoforms were first titrated with the fluorescent probe, AMA. OBP-native-iso3 was collected in smaller quantities than the 3 other isoforms and was used at a 1 μM concentration instead of 2.5 μM and saturated with 2 μM AMA, instead of 3.75 μM AMA. […] Two classes of isoforms, -iso1 and -iso2, bound the two fatty acids and not the steroids.

OBP-native-iso2 [2] = biological target: T2, OBP-native-iso2 (Sus scrofa, UniProt P81245); assay: Fluorescence titration with the probe AMA; format: binding; details: OBP-native-iso2 at 2.5 μM, 50 mM Tris buffer pH 7.8, estimated
T2 construct: Proteins were gently extracted from RM of pre-pubertal males of S. scrofa; from tissue; host or cells: RM (respiratory mucosa) extract of pre-pubertal male pigs, purified by two rounds of anion-exchange HPLC
T2 sequence (P81245 1-157): T1 sequence (P81245 1-157)
Experimental: as §1, §2

OBP-native-iso3 [3] = biological target: T3, OBP-native-iso3 (Sus scrofa, UniProt P81245); assay: Fluorescence titration with the probe AMA; format: binding; details: OBP-native-iso3 at 1 μM, 50 mM Tris buffer pH 7.8, estimated
T3 sequence (P81245 1-157): T1 sequence (P81245 1-157)
Experimental: as §1, §2

OBP-native-iso4 [4] = biological target: T4, OBP-native-iso4 (Sus scrofa, UniProt P81245); assay: Fluorescence titration with the probe AMA; format: binding; details: OBP-native-iso4 at 2.5 μM, 50 mM Tris buffer pH 7.8, estimated
T4 sequence (P81245 1-157): T1 sequence (P81245 1-157)
Experimental: as §1, §2

OBP-native-iso1 [5] = biological target: T1, OBP-native-iso1; assay: Competitive fluorescence binding assay with AMA as probe; details: for IC50: OBP-native-iso1 2.5 μM saturated with 3.75 μM AMA, competitor 0 to 6 μM; for Kd: calculated dissociation constant from AMA competition
Experimental: as §1, §2
(§3) Figure 6 Competitive binding assays of five selected ligands of biological relevance to native OBP isoforms from S. scrofa. (A) OBP-native-iso1; (B) OBP-native-iso2; (C) OBP-native-iso3; and (D) OBP-native-iso4. Proteins were used at 2.5 μM (A,B,D) or 1 μM (C) concentration and were saturated with 3.75 μM (A,B,D) or 2 μM (C) of the fluorescent probe 1-AMA. Competitors were added at increasing concentration from 0 to 6 μM (A,B) or to 15 μM (C,D).

OBP-native-iso2 [6] = biological target: T2, OBP-native-iso2; assay: as above; details: for IC50: OBP-native-iso2 2.5 μM saturated with 3.75 μM AMA, competitor 0 to 6 μM; for Kd: calculated dissociation constant from AMA competition
Experimental: as §1, §2, §3

OBP-native-iso3 [7] = biological target: T3, OBP-native-iso3; assay: as above; details: for binding of ligand (in words) / Kd: OBP-native-iso3; for IC50: OBP-native-iso3 1 μM saturated with 2 μM AMA, competitor 0 to 15 μM; for Kd: calculated dissociation constant from AMA competition
Experimental: as §1, §2, §3

OBP-native-iso4 [8] = biological target: T4, OBP-native-iso4; assay: as above; details: for binding of ligand (in words) / Kd: OBP-native-iso4; for IC50: OBP-native-iso4 2.5 μM saturated with 3.75 μM AMA, competitor 0 to 15 μM; for Kd: calculated dissociation constant from AMA competition
Experimental: as §1, §2, §3

OBP-native-iso4 [9] = assay: as above; design: species or system Sus scrofa; details: ratio of Ka values
Experimental: as §1, §2, §3

OBP-Pichia-iso3 = tested on: OBP-Pichia-iso3; design: method as in PMID 20589419; details: OBP-Pichia-iso3, recombinant, phosphorylated only; cited from earlier work

| SMILES | IC50 (OBP-native-iso1 [5]; read-out: IC50) [nM] | IC50 (OBP-native-iso2 [6]; read-out: IC50) [nM] | binding of ligand (in words) (OBP-native-iso3 [7]) | IC50 (OBP-native-iso3 [7]; read-out: IC50) [nM] | Kd (OBP-native-iso3 [7]) [nM] | binding of ligand (in words) (OBP-native-iso4 [8]) | IC50 (OBP-native-iso4 [8]; read-out: IC50) [nM] | Kd (OBP-native-iso4 [8]) [nM] | Kd (OBP-native-iso1 [5]; OBP-native-iso1) [nM] | Kd (OBP-native-iso2 [6]; OBP-native-iso2) [nM] | binding of ligand (in words) (OBP-Pichia-iso3) | also measured |
| --- | --- | --- | --- | --- | --- | --- | --- | --- | --- | --- | --- | --- |
| Nc1cccc2cc3ccccc3cc12 [AMA, 1-aminoanthracene] |  |  |  |  |  |  |  |  |  |  |  | Kd (OBP-native-iso1 [1]): 370 ± 20 nM; Kd (OBP-native-iso2 [2]): 230 ± 20 nM; Kd (OBP-native-iso3 [3]): 840 ± 80 nM; Kd (OBP-native-iso4 [4]): 500 ± 20 nM |
| C[C@]12CC[C@@H](O)C[C@@H]1CC[C@@H]1[C@@H]2CC[C@]2(C)C=CC[C@@H]12 [Androstenol, 3α-hydroxy-5α-androst-16-ene] | > 6000 | > 6000 | bind | 2590 | 490 | bind | 1430 | 160 |  |  |  | Ka value, OBP-native-iso4 compared with OBP-native-iso3 (OBP-native-iso4 [9]): three times greater |
| C[C@]12CCC(=O)C[C@@H]1CC[C@@H]1[C@@H]2CC[C@]2(C)C=CC[C@@H]12 [Androstenone, 3-keto-5α, 16-androstene] | > 6000 | > 6000 | bind | 1280 | 230 | bind | 1890 | 220 |  |  |  |  |
| CCCCCCCCCCCCCC(=O)O [Myristic acid, tetradecanoic acid] | 330 | 1030 |  |  |  |  | > 15000 |  | 50 | 110 | to a lesser extent |  |
| CCCCCCCCCCCCCCCC(=O)O [Palmitic acid, hexadecanoic acid] | 1030 | 1510 |  |  |  |  | > 15000 |  | 160 | 160 | not able to bind |  |
| C[C@]12CC[C@H]3[C@@H](CCC4=CC(=O)CC[C@@]43C)[C@@H]1CC[C@@H]2O [Testosterone, 17β-hydroxy-3-oxo-4-androstene, reference compound] |  |  | None of the four native isoforms bound |  |  | None of the four native isoforms bound |  |  |  |  |  | binding of ligand (in words) (OBP-native-iso1 [5]; OBP-native-iso1): None of the four native isoforms bound; IC50 (OBP-native-iso1 [5]): > 6000 nM; binding of ligand (in words) (OBP-native-iso2 [6]; OBP-native-iso2): None of the four native isoforms bound; IC50 (OBP-native-iso2 [6]): > 6000 nM; IC50 (OBP-native-iso3 [7]): > 6000 nM; IC50 (OBP-native-iso4 [8]): > 6000 nM |
